BindingDB's records for doi:10.1021/jm051222g (Uppsala University, 2006)

Molecular target: Type-2 angiotensin II receptor (Sus scrofa)
Experiment: Displacement of [125I]Ang2 from AT2 receptor in pig uterus myometrium

| Ki [µM] | SMILES |
| --- | --- |
| 0.0047 | CC[C@H](C)[C@@H]1Nc2c(Cc3ccc(O)cc3)cc(NC(=O)[C@H](CCCN=C(N)N)NC(=O)[C@@H](N)CC(=O)O)cc2CN(CC(=O)N[C@@H](Cc2cnc[nH]2)C(=O)N2CCC[C@H]2C(=O)N[C@@H](Cc2ccccc2)C(=O)O)C1=O [(3S)-3-amino-3-{[(1S)-1-{[(2S)-2-[(2S)-butan-2-yl]-4-({[(2S)-1-[(2S)-2-{[(1S)-1-carboxy-2-phenylethyl]carbamoyl}pyrrolidin-1-yl]-3-(1H-imidazol-4-yl)-1-oxopropan-2-yl]carbamoyl}methyl)-9-[(4-hydroxyphenyl)methyl]-3-oxo-2,3,4,5-tetrahydro-1H-1,4-benzodiazepin-7-yl]carbamoyl}-4-[(diaminomethylidene)amino]butyl]carbamoyl}propanoic acid] |
| 0.0531 | CC[C@H](C)[C@@H]1Nc2c(Cc3ccc(O)cc3)cc(NC(=O)[C@H](CCCN=C(N)N)NC(=O)[C@@H](N)CC(=O)O)cc2CN(CC(=O)N2CCC[C@H]2C(=O)N[C@@H](Cc2ccccc2)C(=O)O)C1=O [(3S)-3-amino-3-{[(1S)-1-{[(2S)-2-[(2S)-butan-2-yl]-4-{2-[(2S)-2-{[(1S)-1-carboxy-2-phenylethyl]carbamoyl}pyrrolidin-1-yl]-2-oxoethyl}-9-[(4-hydroxyphenyl)methyl]-3-oxo-2,3,4,5-tetrahydro-1H-1,4-benzodiazepin-7-yl]carbamoyl}-4-[(diaminomethylidene)amino]butyl]carbamoyl}propanoic acid] |
